Data taken from PMC8445792 (Applied Biological Chemistry, 2021).

Tests used:
[1] = molecular target: H1N1 NA (A/California/04/2009) (Influenza A virus (A/California/04/2009(H1N1)), UniProt C3W5S3); assay: biochemical; settings: read-out: % Inhibition ± SE H1N1 NA
[2] = molecular target: H5N1 NA (A/Anhui/1/2005) (Influenza A virus (A/Anhui/1/2005(H5N1)), UniProt A0A0C5AGB3); assay: biochemical; settings: read-out: % Inhibition ± SE H5N1 NA

## O=C(/C=C/c1ccc(F)cc1)c1ccc(O)cc1 [Compound 1a]
[1]
  inhibition at 100 µg/mL: 21 ± 7%
[2]
  inhibition at 100 µg/mL: 23 ± 11%

## CC(C)Oc1ccc(C(=O)/C=C/c2ccc(F)cc2)cc1 [Compound 1b]
[1]
  inhibition at 100 µg/mL: 5 ± 8%
[2]
  inhibition at 100 µg/mL: 0%

## O=C(/C=C/c1ccc([N+](=O)[O-])cc1)c1ccc(O)cc1 [Compound 2a]
[1]
  inhibition at 100 µg/mL: 16 ± 2%
[2]
  inhibition at 100 µg/mL: 21 ± 2%

## COc1cc(C(=O)/C=C/c2ccc(OCc3ccccc3)c(OC)c2)ccc1O [Compound 2c]
[1]
  inhibition at 100 µg/mL: 1 ± 4%

## O=C(O)c1ccc(/C=C/C(=O)c2ccc(O)cc2)cc1 [Compound 3a]
[1]
  inhibition at 100 µg/mL: 19 ± 2%
[2]
  inhibition at 100 µg/mL: 27%

## O=C(/C=C/c1ccc(F)cc1)c1ccc(OCc2ccccc2)cc1 [Compound 3b]
[1]
  inhibition at 100 µg/mL: 2 ± 4%
[2]
  inhibition at 100 µg/mL: 18 ± 3%

## COc1cc(/C=C/C(=O)c2ccc(O)cc2)ccc1OCc1ccccc1 [Compound 3c]
[1]
  inhibition at 100 µg/mL: 2 ± 4%
[2]
  inhibition at 100 µg/mL: 7 ± 8%

## O=C(/C=C/c1ccc([N+](=O)[O-])cc1)c1ccc(OC2CCCC2)cc1 [Compound 4b]
[1]
  inhibition at 100 µg/mL: 5 ± 5%
[2]
  inhibition at 100 µg/mL: 15 ± 3%

## COc1cc(C=O)ccc1O [Vanillin, reference compound]
[1]
  inhibition at 100 µg/mL: 86 ± 2%
[2]
  inhibition at 100 µg/mL: 84 ± 4%
